Results published in patent US20200370080A1, “ENANTIONSELECTIVE ENZYMATIC SULFOXIDATION OF CHIRAL ARYLSULFIDES” (Bayer Aktiengesellschaft, priority 2017, published 2020).

Tests used:
E. coli cells = test: toxicity of educt and product: growth of the production strain at different concentrations; format: cell-based
Experimental: A person skilled in the art knows how to determine the maximum rate at which the enzyme can process the substrate and thus how much substrate can be added to a given reaction continuously or in a given time interval. To understand the toxicity of educt and product the growth rate of the production strain is determined in presence of different educt and product concentration.

[1] = tested on: styrene monooxygenase StyA/StyB from A. baylyi; test: in vitro sulfoxidation of arylsulfide substrates by purified StyA (oxygenase) with excess StyB (reductase), HPLC analysis; format: biochemical, Acinetobacter baylyi sp. ADP1; conditions: for ee %: enantiomeric excess of sulfoxide formed, abs. configuration S; for yield %): enzymatic conversion to sulfoxide, 2 mM substrate (1 mM in case of clouding), purified StyA with excess StyB
Experimental: In order to do so, the StyA unit from Acinetobacter sp. ADP1 was cloned into a pET-vector inducible with IPTG and expressed in E. coli BL21 pLysS grown in LB medium (10 g/l tryptone, 5 g/l yeast extract, 10 g/l or 20 g/l NaCl, 100 μg/ml ampicillin, 50 μg/ml Chloramphenicol). For the expression a 5 ml overnight culture was used as inoculum for a fermenter with […] or a flask with 500 ml medium. The cells were cultured at 37° C. until the culture reached an optical density of 0.6 which was the threshold for induction of recombinant gene expression using IPTG (0.1 mM). The culture was performed for another 18 h at 20° C. […] The cells were harvested and the cellular walls were disrupted using a French press. […] The target protein was purified for the subsequent characterization.
The StyB unit from Acinetobacter baylyi sp. ADP1 was expressed in a similar fashion.
In order to test the activity the StyB unit (reductase) was employed in excess to supply the StyA unit (oxygenase) with sufficient reduced FAD. Therefore, NADH was produced by a format-dehydrogenase from format and NAD in the respective enzymatic reaction.
The enzyme conversion rate was probed every minute for 15 min for the kinetic analysis. If possible, i.e. soluble, 2 mM substrate were employed. In case of clouding 1 mM substrate was employed. The substrate was dissolved in ethanol. Reactions in the probes were stopped with a 1:1 mixture of ice-cold methanol and acetonitrile and afterwards analyzed using HPLC.
The educt and the product were analyzed on an Agilent 1100 HPLC device.

[2] = resting cell activity of whole-cell biocatalyst (E. coli JM101 pStyAB_ADP1_lac); format: cell-based; conditions: E. coli JM101, M9 minimal medium, 4.8 h after induction with 1 mM IPTG
Experimental: In detail, the styrene monooxygenase subunits StyA and StyB were expressed in E. coli JM101 cultivated in M9 minimal medium from the pStyAB_ADP1_lac vector. To find the maximum specific activity samples were taken after previously defined time points after addition of the inducer (1 mM IPTG). Cells were retrieved from the actively growing culture and used for the determination of the resting cell activity. As shown in FIG. 3 the specific activity increased steadily from the time point of induction and reached a maximum of 450±30 U/gcdw 4.8 h after induction.
In detail, the specific activity was quantified as follows: StyA and StyB were expressed in E. coli JM101 carrying the pStyAB_ADP1_lac vector. Cells were cultivated in M9 minimal medium and induced at an OD of 0.6-0.8. […]
Successful separation of the product i.e. the S-enantiomer of 2-chloro-4-(methylsulfinylmethyl)pyridine was achieved on a Dionex UltiMate 3000 HPLC system (Thermo Scientific) equipped with a non-polar HPLC column with C18 matrix (Accucore C18, 3×150 mm, 2.6 μm particle size, Thermo Scientific). […] The organic compounds were detected by absorption using diode array detector (DAD) at a wavelength of 210 nm. […]

| Molecule | ee % [1] [%] | yield %) [1] [%] | further results |
| --- | --- | --- | --- |
| C[S@+]([O-])Cc1ccnc(Cl)c1 [2-Chloro-4-((methyl-S-sulfinyl)methyl)pyridine] |  |  | toxicity of the product compared with the substrate (E. coli cells; E. coli cells): significantly lower |
| CSCc1ccnc(Cl)c1 [2-chloro-4-(methylsulfanylmethyl)pyridine] |  |  | substrate concentration that entirely inhibited the growth of the cells (E. coli cells; E. coli cells expressing StyA and StyB): above 10 mM |
| CSc1ccccc1 [Ph—S—CH3, phenyl methyl sulfide] | 99.3 | 48 |  |
| C=CSc1ccccc1 [Ph—S—CH═CH2, phenyl vinyl sulfide] | 99.7 | 40 |  |
| CSc1ccc(Br)cc1 [p(Br)—Ph—S—CH3, 4-bromophenyl methyl sulfide] | 98.1 | 58 |  |
| CSc1ccc(C)cc1 [p(CH3)—Ph—S—CH3, 4-methylphenyl methyl sulfide] | 97.6 | 42 |  |
| CSc1ccc(Cl)cc1 [p(Cl)—Ph—S—CH3, 4-chlorophenyl methyl sulfide] | 95.5 | 34 |  |
| CSc1ccc(F)cc1 [p(F)—Ph—S—CH3, 4-fluorophenyl methyl sulfide] | 99.0 | 55 |  |
| styrene monooxygenase subunits StyA and StyB: two-component styrene monooxygenase (SEQ ID NO 5 and 6) expressed in E. coli JM101 from the pStyAB_ADP1_lac vector (protein, listed as Acinetobacter baylyi) chain 1: MRRIAIVGAGQSGLQLGLSLLDTGYDVTIVTNRTADQIRQGKVMSSQCMFHTALQTERDVGLNFWEEQCPAVEGIGFTLVSPETGKPAFSWSARLERYAQSVDQRVKMPYWIEEFERRGGKLIIQDVGIDELEQLTTEYELVLLAAGKGEVVKQFVRDDERSTFDKPQRALALTYVTGMKPMSPYSRVTFNVIPGVGEYFCFPALTVTGPCEIMVFEGIPGGPMDCWQDAKTPEQHLQMSKDILNTYLPWEAERCENIEITDAGGYLAGRFPPSVRKPILTLPSGRQVFGMADALVVNDPITGQGSNNAAKCSKIYFDAILAHDTQSFTPEWMQQTFERYWSYAEKVVAWTNSLLVPPQPQMIDVLAAASQNQAIASTIANNFDDPRNFSPWWFDAEQAQHFIESKSCQKVA chain 2: MNINTSHELGLKPIDTENPREIRNLLGQFATGVTVITTRGRDGRKIGMTANSFSSLSLDPPLILWSLSKTAPSLPDFTEAEYFAIHMLAQEHHSLSGHFARGSEDKFASIAHRECERGLPLLEDVLATLVCKNINQYEGGDHLIFIGQIEHYQQRIGEPLVFHAGKYRIAAEHPELSA |  |  | maximum specific activity [2]: 450±30 U/gcdw |
